Assay results published in patent US6444816B1, “Fused 7-oxo-pyrimidinyl compounds, preparation, composition and use thereof” (Dr. Reddy's Research Foundation, priority 1997, dated 2002).

Key:
[1] = biological target: T1, hPPARγ1 (Homo sapiens, UniProt P37231); assay: Determination of hPPARγ activity (GAL4 luciferase reporter transactivation in HEK-293 cells); assay type: cell-based; conditions: compound at 1 μM, HEK-293 cells transfected with GAL4-hPPARγ1 LBD
T1 construct: expressed in transfected cells; host or cells: HEK-293
T1 sequence (P37231 238-503 limits assumed): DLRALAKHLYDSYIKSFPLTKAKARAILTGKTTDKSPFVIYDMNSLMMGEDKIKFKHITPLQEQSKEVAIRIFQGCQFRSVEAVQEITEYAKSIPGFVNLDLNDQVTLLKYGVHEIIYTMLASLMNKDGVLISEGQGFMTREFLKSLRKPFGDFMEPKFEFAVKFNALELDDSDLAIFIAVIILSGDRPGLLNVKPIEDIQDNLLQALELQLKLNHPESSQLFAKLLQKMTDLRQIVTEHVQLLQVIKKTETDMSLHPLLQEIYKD
Protocol: Ligand binding domain of hPPARγ1 was fused to DNA binding domain of Yeast transcription factor GAL4 in eucaryotic expression vector. Using lipofectamine (Gibco BRL, USA) as transfecting reagent HEK-293 cells were transfected with this plasmid and a reporter plasmid harboring the luciferase gene driven by a GAL4 specific promoter. Compound was added at 1 μM concentration after 48 hrs of transfection and incubated overnight. Luciferase activity as a function of drug binding/activation capacity of PPARγ1 was measured using Packard Luclite kit (Packard, USA) in Packard Top Count (Ivan Sadowski, Brendan Bell, Peter Broag and Melvyn Hollis. Gene. 1992. 118: 137-141; Guide to Eukaryotic Transfections with Cationic Lipid Reagents. Life Technologies, GIBCO BRL, USA).

[2] = biological target: T2, hPPARα (Homo sapiens, UniProt Q07869); assay: Determination of hPPARα activity (GAL4 luciferase reporter transactivation in HEK-293 cells); assay type: cell-based; conditions: compound at 50 μM, HEK-293 cells transfected with GAL4-hPPARα LBD
T2 construct: expressed in transfected cells; host or cells: HEK-293
T2 sequence (Q07869 239-466 limits assumed): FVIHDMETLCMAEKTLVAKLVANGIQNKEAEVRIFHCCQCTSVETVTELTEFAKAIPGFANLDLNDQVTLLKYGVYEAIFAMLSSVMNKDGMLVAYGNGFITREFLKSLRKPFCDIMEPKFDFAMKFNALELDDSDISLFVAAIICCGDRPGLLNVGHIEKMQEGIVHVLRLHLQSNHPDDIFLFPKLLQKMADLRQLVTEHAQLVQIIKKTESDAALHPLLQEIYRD
Protocol: Ligand binding domain of hPPARα was fused to DNA binding domain of Yeast transcription factor GAL4 in eucaryotic expression vector. Using superfect (Qiagen, Germany) as transfecting reagent HEK-293 cells were transfected with this plasmid and a reporter plasmid harboring the luciferase gene driven by a GAL4 specific promoter. Compound was added at different concentrations after 42 hrs of transfection and incubated overnight. Luciferase activity as a function of compound binding/activation capacity of PPARα was measured using Packard Luclite kit (Packard, USA) in Top Count (Ivan Sadowski, Brendan Bell, Peter Broag and Melvyn Hollis. Gene. 1992. 118: 137-141; Superfect Transfection Reagent Handbook. February 1997. Qiagen, Germany).

[3] = tested on: Swiss albino mice; assay: Triglyceride lowering activity in Swiss albino mice; assay type: in vivo; conditions: 3 mg/kg/day oral for 6 days
Protocol: Male Swiss albino mice (SAM) were obtained from NIN and housed in DRF animal house. All these animals were maintained under 12 hour light and dark cycle at 25±1° C. Animals were given standard laboratory chow SIN, Hyderabad, India) and water, ad libitun. SAM of 20-25 g body weight range and Guinea pigs of 500-700 g body weight range were used (Oliver, P., Plancke, M. O., Marzin, D., Clavey, V., Sauzieres, J and Fruchart, J. C. Effects of fenofibrate, gemfibrozil and nicotinic acid on plasma lipoprotein levels in normal and hyperlipidemic mice. Atherosclerosis. 1988. 70:107-114).
The test compounds were administered orally to Swiss albino mice at 0.3 to 30 mg/kg/day dose for 6 days. Control mice were treated with vehicle (0.25% Carboxymethylcellulose; dose 10 ml/kg). The test compounds were administered orally to Guinea pigs at 0.3 to 30 mg/kg/day dose for 6 days. Control animals were treated with vehicle (0.25% Carboxymethylcellulose; dose 5 ml/kg).
The blood samples were collected in fed state 1 hour after drug administration on 0 and 6 day of treatment. The blood was collected from the retro-orbital sinus through heparinised capillary in EDTA containing tubes. After centrifugation, plasma sample was separated for triglyceride and total cholesterol (Wieland, O. Methods of Enzymatic analysis. Bergermeyer, H. O., Ed., 1963. 211-214; Trinder, P. Ann. Clin. Biochem. 1969. 6: 24-27). Measurement of plasma triglyceride, total cholesterol and HDL were done using commercial kits (Dr. Reddy's Diagnostic Division, Hyderabad, India).
(§1) 1. Percent reduction in Blood sugar/triglycerides/total cholesterol were calculated according to the formula: [formula]

[4] = tested on: hypercholesterolemic male Sprague Dawley rats; assay: Cholesterol lowering activity in hypercholesterolemic male Sprague Dawley rats; assay type: in vivo; conditions: 3 mg/kg/day oral for 3 days
Protocol: Male Sprague Dawley rats (NIN stock) were bred in DRF animal house. Animals were maintained under 12 hour light and dark cycle at 25±1° C. Rats of 180-200 gram body weight range were used for the experiment. Animals were made hypercholesterolemic by feeding 2% cholesterol and 1% sodium cholate mixed with standard laboratory chow [National Institute of Nutrition (NMN), Hyderabad, India] for 6 days. Throughout the experimental period the animals were maintained on the same diet (Petit, D., Bonnefis, M. T., Rey, C and Infante, R. Effects of ciprofibrate on liver lipids and lipoprotein synthesis in normo- and hyperlipidemic rats. Atherosclerosis. 1988. 74: 215-225).
The test compounds were administered orally at a dose 0.1 to 30 mg/kg/day for 3 days. Control group was treated with vehicle alone (0.25% Carboxymethylcellulose; dose 10 ml/kg).
The blood samples were collected in fed state 1 hour after drug administration on 0 and 3 day of compound treatment. The blood was collected from the retro-orbital sinus through heparinised capillary in EDTA containing tubes. After centrifugation, plasma sample was separated for total cholesterol, HDL and triglyceride estimations. Measurement of plasma triglyceride, total cholesterol and HDL were done using commercial kits (Dr. Reddy's Laboratory, Diagnostic Division, India). LDL and VLDL cholesterol were calculated from the data obtained for total cholesterol, HDL and triglyceride. The reduction of various parameters examined are calculated according to the formula given below.
as §1
2. LDL and VLDL cholesterol levels were calculated according to the formula: [formula]
VLDL cholesterol in mg/dl=[Total cholesterol−HDL cholesterol−LDL cholesterol] mg/dl.

[5] = tested on: C57BL/KsJ-db/db mice; assay: Blood glucose and triglyceride lowering activity in db/db mice; assay type: in vivo; conditions: 3 mg/kg oral gavage daily for 6 days, plasma 1 h after dose on day 6
Excerpt: Mutation in colonies of laboratory animals and different sensitivities to dietary regimens have made the development of animal models with non-insulin dependent diabetes and hyperlipidemia associated with obesity and insulin resistance possible. Genetic models such as db/db and ob/ob (Diabetes, (1982) 31(1): 1-6) mice and zucker fa/fa rats have been developed by the various laboratories for understanding the pathophysiology of disease and testing the efficacy of new antidiabetic compounds (Diabetes, (1983) 32: 830-838; Annu. Rep. Sankyo Res. Lab. (1994). 46: 1-57). The homozygous animals, C57 BL/KsJ-db/db mice developed by Jackson Laboratory, US, are obese, hyperglycemic, hyperinsulinemic and insulin resistant (J. Clin. Invest., (1990) 85: 962-967), whereas heterozygous are lean and normoglycemic. In db/db model, mouse progressively develops insulinopenia with age, a feature commonly observed in late stages of human type II diabetes when blood sugar levels are insufficiently controlled. The state of pancreas and its course vary according to the models. Since this model resembles that of type II diabetes mellitus, the compounds of the present invention were tested for blood sugar and triglycerides lowering activities.
Male C57BL/KsJ-db/db mice of 8 to 14 weeks age, having body weight range of 35 to 60 grams, bred at Dr. Reddy's Research Foundation (DRF) animal house, were used in the experiment. The mice were provided with standard feed (National Institute of Nutrition (NIN), Hyderabad, India) and acidified water, ad libitum. The animals having more than 350 mg/dl blood sugar were used for testing. The number of animals in each group was 4.
Test compounds were suspended on 0.25% carboxymethyl cellulose and administered to test group at a dose of 0.001 mg to 30 mg/kg through oral gavage daily for 6 days. The control group received vehicle (dose 10 ml/kg). On 6th day the blood samples were collected one hour after administration of test compounds/vehicle for assessing the biological activity.
The random blood sugar and triglyceride levels were measured by collecting blood (100 μl) through orbital sinus, using heparinised capillary in tubes containing EDTA which was centrifuged to obtain plasma. The plasma glucose and triglyceride levels were measured spectrometrically, by glucose oxidase and glycerol-3-PO4 oxidase/peroxidase enzyme (Dr. Reddy's Lab. Diagnostic Division Kits, Hyderabad, India) methods respectively.
The blood sugar and triglycerides lowering activities of the test compound was calculated according to the formula given below.
as §1

Row | PPARγ activity [1] | PPARα activity [2] | SMILES | Triglyceride (%)↓ [3] [%] | Reduction in Blood Glucose Level (%) [5] [%] | Triglyceride Lowering (%) [5] [%] | further results
1 | 11.0 | 5.00 | CCCc1nn(C)c2c(=O)n(CCOc3ccc(CC(OCC)C(=O)OCC)cc3)c(CC)nc12 (stereo not shown) [Example 1] | 45 | – | – | –
2 | – | – | CCCc1nn(C)c2c(=O)n(CCOc3ccc(CC(OCC)C(=O)O)cc3)c(CC)nc12 (stereo not shown) [Example 2] | – | – | – | HDL ↓ [4]: 164; Total Cholesterol (%)↓ [4]: 60%; Triglyceride (%)↓ [4]: 70%; LDL (%)↓ ([4]; LDL calculated from total cholesterol, HDL and triglyceride): 72%; VLDL (%)↓ ([4]; VLDL calculated from total cholesterol, HDL and LDL): 71%
3 | 19.0 | 6.9 | CCCc1nn(C)c2c(=O)n(CCOc3ccc(CC(OCC)C(=O)OCC)cc3)c(C)nc12 (stereo not shown) [Example 3, Ethyl 3-[4-[2-(1,5-Dimethyl-7-oxo-3-propyl-6,7-dihydro-1H-pyrazolo[4,3-d]pyrimidin-6-yl)ethoxy]phenyl]-2-ethoxypropanoate] | 61 | 58 | 23 | –
4 | 14.6 | 8.32 | CCCc1nn(C)c2c(=O)n(CCOc3ccc(CC(OCC)C(=O)O)cc3)c(C)nc12 (stereo not shown) [Example 4, 3-[4-[2-(1,5-Dimethyl-7-oxo-3-propyl-6,7-dihydro-1H-pyrazolo[4,3-d]pyrimidin-6-yl)ethoxy]phenyl]-2-ethoxypropanoic Acid] | 66 | 42 | 17 | –
5 | – | – | CCCc1nn(C)c2c(=O)n(CCOc3ccc(CC(Oc4ccccc4)C(=O)O)cc3)c(CC)nc12 (stereo not shown) [Example 10, 3-[4-[2-(5-Ethyl-1-methyl-7-oxo-3-propyl-6,7-dihydro-1H-pyrazolo[4,3-d]pyrimidin-6-yl)ethoxy]phenyl]-2-phenoxypropanoic Acid] | – | 33 | 35 | –
6 | – | – | CCCc1nn(C)c2c(=O)n(CCOc3ccc(CC(OCC)C(=O)OCC)cc3)c(CCC)nc12 (stereo not shown) [Example 13, Ethyl 3-[4-[2-(3,5-Dipropyl-1-methyl-7-oxo-6,7-dihydro-1H-pyrazolo[4,3-d]pyrimidin-6-yl)ethoxy]phenyl]-2-ethoxypropanoate] | 25 | – | – | –
7 | – | – | CCCc1nn(C)c2c(=O)n(CCOc3ccc(C[C@@H](OCC)C(=O)N[C@H](CO)c4ccccc4)cc3)c(CC)nc12 [Example 18A, [2R, N(1S)]-2-Ethoxy-3-[4-[2-(5-ethyl-1-methyl-7-oxo-3-propyl-6,7-dihydro-1H-pyrazolo[4,3-d]pyrimidin-6-y]ethoxy]phenyl]-N-(2-hydroxy-1-phenylethyl) Propanamide] | – | – | – | melting point: 138 to 139 °C
